Where two headings read alike, the source gives them in different places.
How the values were obtained:
GST-MCL-1 = GST-MCL-1 (Homo sapiens, UniProt Q07820); test: TR-FRET MCL-1 binding assay (competition with probe F-Bak)
Outline: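 Displacement of F-Bak from GST-MCL-1 is detected by time-resolved FRET with a Tb-labelled anti-GST antibody, with excitation 340/35 nm and emission 520/525 and 495/510 nm, after 2 hours at room temperature. Compounds were titrated in 11 three-fold steps starting at 25 μM final, in buffer alone or in 10% HS.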

[1] = test system: AMO-1 human multiple myeloma tumor cell line; test: AMO-1 cell viability assay (CellTiter-Glo, 24 hours); type: cell-based; conditions: Homo sapiens, AMO1, 24 h, read-out: AMO-1 Viability IC50 (μM, 10% FBS), 10% FBS, 24 hours of compound treatment
Experimental: Each concentration was tested in duplicate at least 3 independent times. A luminescent signal proportional to the number of viable cells following 24 hours of compound treatment was determined using the CellTiter-Glo® Luminescent Cell Viability Assay according to the manufacturer's recommendations (Promega Corp., Madison, WI). The plates were read in a Perkin Elmer Envision using a Luminescence protocol. To generate dose response curves the data is normalized to percent viability by setting the averages of the staurosporine (10 μM) and DMSO only control wells to 0% and 100% viability respectively.

[2] = test system: NCI-H929 human multiple myeloma tumor cell line; test: NCI-H929 cell viability assay (CellTiter-Glo, 24 hours); type: cell-based; conditions: Homo sapiens, NCI-H929, 24 h, read-out: H929 Viability IC50 (μM, 10% FBS), 10% FBS, 24 hours of compound treatment
[3] = MCL-1 Binding Ki (nM, 10% HS), in the presence of 10% HS (human serum)
[4] = without HS, read-out: MCL-1 Binding Ki

Chain of GST-MCL-1 (Q07820 whole entry): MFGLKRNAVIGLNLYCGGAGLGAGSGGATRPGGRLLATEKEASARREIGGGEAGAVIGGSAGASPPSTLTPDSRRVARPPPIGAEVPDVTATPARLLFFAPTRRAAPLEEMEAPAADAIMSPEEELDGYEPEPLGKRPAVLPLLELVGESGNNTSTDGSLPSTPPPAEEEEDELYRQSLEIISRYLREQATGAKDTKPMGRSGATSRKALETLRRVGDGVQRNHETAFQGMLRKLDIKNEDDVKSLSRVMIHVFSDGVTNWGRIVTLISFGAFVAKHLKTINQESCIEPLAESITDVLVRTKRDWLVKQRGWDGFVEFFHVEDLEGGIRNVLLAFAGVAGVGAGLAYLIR

SMILES: Cc1c(Cl)c2c(Cl)c(C)c1-c1c(-c3ccc(F)cc3)sc3ncnc(c13)O[C@@H](C(=O)O)Cc1cc(ccc1OCc1ccnc(N3CCC(C)(N4CCOCC4)CC3)n1)OC[C@@H](CN1CCN(C)CC1)O2 [Example 144, (7R,16R)-19,23-dichloro-1-(4-fluorophenyl)-20,22-dimethyl-10-({2-[4-methyl-4-(morpholin-4-yl)piperidin-1-yl]pyrimidin-4-yl}methoxy)-16-[(4-methylpiperazin-1-yl)methyl]-7,8,15,16-tetrahydro-18,21-etheno-13,9-(metheno)-6,14,17-trioxa-2-thia-3,5-diazacyclononadeca[1,2,3-cd]indene-7-carboxylic Acid]
- Ki (GST-MCL-1; [3]): > 444 nM
- Ki (GST-MCL-1; [4]): 10.9 nM
- IC50 [1]: 0.00178 µM
- IC50 [2]: 0.0077 µM

SMILES: Cc1c(Cl)c2c(Cl)c(C)c1-c1c(-c3ccc(F)cc3)sc3ncnc(c13)O[C@@H](C(=O)O)Cc1cc(ccc1OCc1ccnc([C@@H]3CN4CCC[C@H]4CO3)n1)OC[C@@H](CN1CCN(C)CC1)O2 [Example 150, (7R,16R)-19,23-dichloro-1-(4-fluorophenyl)-10-({2-[(3S,8aS)-hexahydro-1H-pyrrolo[2,1-c][1,4]oxazin-3-yl]pyrimidin-4-yl}methoxy)-20,22-dimethyl-16-[(4-methylpiperazin-1-yl)methyl]-7,8,15,16-tetrahydro-18,21-etheno-13,9-(metheno)-6,14,17-trioxa-2-thia-3,5-diazacyclononadeca[1,2,3-cd]indene-7-carboxylic Acid]
- Ki (GST-MCL-1; [3]): 0.267 nM
- Ki (GST-MCL-1; [4]): 0.043 nM
- IC50 [1]: 0.00151 µM
- IC50 [2]: 0.00253 µM

SMILES: Cc1c(Cl)c2c(Cl)c(C)c1-c1c(-c3ccc(F)cc3)sc3ncnc(c13)O[C@@H](C(=O)O)Cc1cc(ccc1OCc1ccnc(-c3ccc(CN4CCS(=O)(=O)CC4)cc3)n1)OC[C@@H](CN1CCN(C)CC1)O2 [Example 126, (7R,16R)-19,23-dichloro-10-[(2-{4-[(1,1-dioxo-1˜^6-thiomorpholin-4-yl)methyl]phenyl}pyrimidin-4-yl)methoxy]-1-(4-fluorophenyl)-20,22-dimethyl-16-[(4-methylpiperazin-1-yl)methyl]-7,8,15,16-tetrahydro-18,21-etheno-13,9-(metheno)-6,14,17-trioxa-2-thia-3,5-diazacyclononadeca[1,2,3-cd]indene-7-carboxylic Acid]
- Ki (GST-MCL-1; [3]): 0.39 nM
- Ki (GST-MCL-1; [4]): 0.043 nM
- IC50 [1]: 0.000544 µM
- IC50 [2]: 0.00169 µM

SMILES: Cc1c(Cl)c2c(Cl)c(C)c1-c1c(-c3ccc(F)cc3)sc3ncnc(c13)O[C@@H](C(=O)O)Cc1cc(ccc1OCc1ccnc(-c3cccc(CN4CCS(=O)(=O)CC4)c3)n1)OC[C@@H](CN1CCN(C)CC1)O2 [Example 117, (7R,16R)-19,23-dichloro-10-[(2-{3-[(1,1-dioxo-1λ^6-thiomorpholin-4-yl)methyl]phenyl}pyrimidin-4-yl)methoxy]-1-(4-fluorophenyl)-20,22-dimethyl-16-[(4-methylpiperazin-1-yl)methyl]-7,8,15,16-tetrahydro-18,21-etheno-13,9-(metheno)-6,14,17-trioxa-2-thia-3,5-diazacyclononadeca[1,2,3-cd]indene-7-carboxylic Acid]
- Ki (GST-MCL-1; [3]): 0.219 nM
- Ki (GST-MCL-1; [4]): 0.025 nM
- IC50 [1]: 0.000205 µM
- IC50 [2]: 0.000364 µM

SMILES: COCCOCCOCCOCCOCCOCCOCCOCCOCCOCCOCCOCCOCC1(c2nccc(COc3ccc4cc3C[C@H](C(=O)O)Oc3ncnc5sc(-c6ccc(F)cc6)c(c35)-c3c(C)c(Cl)c(c(Cl)c3C)O[C@H](CN3CCN(C)CC3)CO4)n2)CCC1 [Example 44, (7R,16R)-19,23-dichloro-1-(4-fluorophenyl)-20,22-dimethyl-16-[(4-methylpiperazin-1-yl)methyl]-10-({2-[1-(2,5,8,11,14,17,20,23,26,29,32,35,38-tridecaoxanonatriacontan-1-yl)cyclobutyl]pyrimidin-4-yl}methoxy)-7,8,15,16-tetrahydro-18,21-etheno-13,9-(metheno)-6,14,17-trioxa-2-thia-3,5-diazacyclononadeca[1,2,3-cd]indene-7-carboxylic Acid]
- Ki (GST-MCL-1; [3]): 0.224 nM
- Ki (GST-MCL-1; [4]): 0.124 nM
- IC50 [1]: 0.0211 µM
- IC50 [2]: 0.0179 µM

SMILES: Cc1c(Cl)c2c(Cl)c(C)c1-c1c(-c3ccc(F)cc3)sc3ncnc(c13)O[C@@H](C(=O)O)Cc1cc(ccc1OCc1ccnc(N3CCC(C)(CC(=O)O)CC3)n1)OC[C@@H](CN1CCN(C)CC1)O2 [Example 41, (7R,16R)-10-({2-[4-(carboxymethyl)-4-methylpiperidin-1-yl]pyrimidin-4-yl}methoxy)-19,23-dichloro-1-(4-fluorophenyl)-20,22-dimethyl-16-[(4-methylpiperazin-1-yl)methyl]-7,8,15,16-tetrahydro-18,21-etheno-13,9-(metheno)-6,14,17-trioxa-2-thia-3,5-diazacyclononadeca[1,2,3-cd]indene-7-carboxylic Acid]
- Ki (GST-MCL-1; [3]): 1.05 nM
- Ki (GST-MCL-1; [4]): 0.078 nM
- IC50 [1]: 0.0159 µM
- IC50 [2]: 0.019 µM

SMILES: CO[C@@H]1CO[C@H]2[C@@H]1OC[C@H]2OCCOc1ccc(-c2nccc(COc3ccc4cc3C[C@H](C(=O)O)Oc3ncnc5sc(-c6ccc(F)cc6)c(c35)-c3c(C)c(Cl)c(c(Cl)c3C)O[C@H](CN3CCN(C)CC3)CO4)n2)cc1 [Example 154, (7R,16R)-19,23-dichloro-1-(4-fluorophenyl)-10-({2-[4-(2-{[(3R,3aR,6R,6aR)-6-methoxyhexahydrofuro[3,2-b]furan-3-yl]oxy}ethoxy)phenyl]pyrimidin-4-yl}methoxy)-20,22-dimethyl-16-[(4-methylpiperazin-1-yl)methyl]-7,8,15,16-tetrahydro-18,21-etheno-13,9-(metheno)-6,14,17-trioxa-2-thia-3,5-diazacyclononadeca[1,2,3-cd]indene-7-carboxylic Acid]
- Ki (GST-MCL-1; [3]): 0.191 nM
- Ki (GST-MCL-1; [4]): 0.018 nM
- IC50 [1]: 0.000698 µM
- IC50 [2]: 0.000643 µM

SMILES: COCCOCCOCCOCCOCCOC1(c2nccc(COc3ccc4cc3C[C@H](C(=O)O)Oc3ncnc5sc(-c6ccc(F)cc6)c(c35)-c3c(C)c(Cl)c(c(Cl)c3C)O[C@H](CN3CCN(C)CC3)CO4)n2)CCC1 [Example 63, (7R,16R)-19,23-dichloro-1-(4-fluorophenyl)-20,22-dimethyl-16-[(4-methylpiperazin-1-yl)methyl]-10-[(2-{1-[(2,5,8,11,14-pentaoxahexadecan-16-yl)oxy]cyclobutyl}pyrimidin-4-yl)methoxy]-7,8,15,16-tetrahydro-18,21-etheno-9,13-(metheno)-6,14,17-trioxa-2-thia-3,5-diazacyclononadeca[1,2,3-cd]indene-7-carboxylic Acid]
- Ki (GST-MCL-1; [3]): 0.148 nM
- Ki (GST-MCL-1; [4]): 0.039 nM
- IC50 [1]: 0.00205 µM
- IC50 [2]: 0.0032 µM

SMILES: COCCOCCOCCOCCOCCO[C@H]1CC[C@@H](c2nccc(COc3ccc4cc3C[C@H](C(=O)O)Oc3ncnc5sc(-c6ccc(F)cc6)c(c35)-c3c(C)c(Cl)c(c(Cl)c3C)O[C@H](CN3CCN(C)CC3)CO4)n2)CC1 [Example 82, (7R,16R)-19,23-dichloro-1-(4-fluorophenyl)-20,22-dimethyl-16-[(4-methylpiperazin-1-yl)methyl]-10-[(2-{(1s,4s)-4-[(2,5,8,11,14-pentaoxahexadecan-16-yl)oxy]cyclohexyl}pyrimidin-4-yl)methoxy]-7,8,15,16-tetrahydro-18,21-etheno-13,9-(metheno)-6,14,17-trioxa-2-thia-3,5-diazacyclononadeca[1,2,3-cd]indene-7-carboxylic Acid]
- Ki (GST-MCL-1; [3]): 0.135 nM
- Ki (GST-MCL-1; [4]): 0.014 nM
- IC50 [1]: 0.000563 µM
- IC50 [2]: 0.00109 µM

SMILES: CO[C@@H]1CO[C@H]2[C@@H]1OC[C@H]2OCCOCCOC1CCC(c2nccc(COc3ccc4cc3C[C@H](C(=O)O)Oc3ncnc5sc(-c6ccc(F)cc6)c(c35)-c3c(C)c(Cl)c(c(Cl)c3C)O[C@H](CN3CCN(C)CC3)CO4)n2)CC1 (stereo partly drawn) [Example 138, (7R,16R)-19,23-dichloro-1-(4-fluorophenyl)-10-[(2-{(1r,4r)-4-[2-(2-{[(3R,3aR,6R,6aR)-6-methoxyhexahydrofuro[3,2-b]furan-3-yl]oxy}ethoxy)ethoxy]cyclohexyl}pyrimidin-4-yl)methoxy]-20,22-dimethyl-16-[(4-methylpiperazin-1-yl)methyl]-7,8,15,16-tetrahydro-18,21-etheno-13,9-(metheno)-6,14,17-trioxa-2-thia-3,5-diazacyclononadeca[1,2,3-cd]indene-7-carboxylic Acid]
- Ki (GST-MCL-1; read-out: MCL-1 Binding Ki (nM, 10% HS), in the presence of 10% HS (human serum)): 0.049 nM
- Ki (GST-MCL-1; [4]): 0.007 nM
- IC50 [1]: 0.002 µM
- IC50 [2]: 0.00221 µM

SMILES: Cc1c(Cl)c2c(Cl)c(C)c1-c1c(-c3ccc(F)cc3)sc3ncnc(c13)O[C@@H](C(=O)O)Cc1cc(ccc1OCc1ccnc(C3(COCCOC[C@H]4COCCO4)CCC3)n1)OC[C@@H](CN1CCN(C)CC1)O2 [Example 77, (7R,16R)-19,23-dichloro-10-[(2-{1-[(2-{[(2R)-1,4-dioxan-2-yl]methoxy}ethoxy)methyl]cyclobutyl}pyrimidin-4-yl)methoxy]-1-(4-fluorophenyl)-20,22-dimethyl-16-[(4-methylpiperazin-1-yl)methyl]-7,8,15,16-tetrahydro-18,21-etheno-13,9-(metheno)-6,14,17-trioxa-2-thia-3,5-diazacyclononadeca[1,2,3-cd]indene-7-carboxylic Acid]
- Ki (GST-MCL-1; [3]): 0.325 nM
- Ki (GST-MCL-1; [4]): 0.089 nM
- IC50 [1]: 0.000193 µM
- IC50 [2]: 0.000405 µM

From patent US20250313572A1, “MACROCYCLIC MCL-1 INHIBITORS AND METHODS OF USE” (AbbVie Inc., priority 2017, published 2025)
